One assay concerns platelet aggregation. Put plainly: Measurement of platelet aggregation inhibition activity (5-HTP plus collagen induced aggregation of platelet rich plasma). The format is cell-based. To be noted: Oryctolagus cuniculus, rabbit PRP, 5-HTP final concentration 3 µM plus collagen in a concentration which alone does not cause aggregation, probit analysis, read-out: IC₅₀ value. Here is the method: [Measurement of platelet aggregation inhibition activity]
Measurement of platelet aggregation was carried out using a platelet aggregation measuring apparatus NSB Hematracer 601.
Blood samples were collected from auricular arteries of male Japanese white rabbits (2 to 3 kg) using a syringe containing 1 volume of 3.8% sodium citrate per 9 volumes of blood and centrifuged at 900 rpm for 10 minutes. After collecting the resulting supernatant fluid as platelet rich plasma (PRP), the remaining lower layer was centrifuged at 3,000 rpm for 10 minutes to obtain platelet poor plasma (PPP). Platelets in the thus obtained PRP were counted using a microcell counter (Sysmex F-800, manufactured by Toa Iyo Denshi) and diluted with the PPP to a density of 30 x 10⁴/µl.
A 220 µl portion of PRP was mixed with 5 µl of 104 mM CaCl₂, incubated at 37°C for 1 minute and then mixed with 5 µl of a drug to be tested or physiological saline as a control. […] Activities to inhibit the aggregation reaction were measured to calculate 50% inhibition concentration (IC₅₀) by probit analysis, with the results shown in Table 2. In the table, each result was indicated by "+" when the IC₅₀ value was 1.0 x 10⁻⁶ M or more, "++" when the value was 9.9 x 10⁻⁷ to 1.0 x 10⁻⁷ M and "+++" when the value was 9.9 x 10⁻⁸ M or smaller.

For a further assay, the target named is T1, serotonin 2 receptor (Rattus norvegicus, UniProt P14842).
T1 construct: A piece of wire was inserted into each of the thus excised blood vessels to prepare a spiral specimen; from tissue; host or cells: rat (Wistar-KY) abdominal side tail artery, spiral specimen
T1 sequence (P14842 whole entry): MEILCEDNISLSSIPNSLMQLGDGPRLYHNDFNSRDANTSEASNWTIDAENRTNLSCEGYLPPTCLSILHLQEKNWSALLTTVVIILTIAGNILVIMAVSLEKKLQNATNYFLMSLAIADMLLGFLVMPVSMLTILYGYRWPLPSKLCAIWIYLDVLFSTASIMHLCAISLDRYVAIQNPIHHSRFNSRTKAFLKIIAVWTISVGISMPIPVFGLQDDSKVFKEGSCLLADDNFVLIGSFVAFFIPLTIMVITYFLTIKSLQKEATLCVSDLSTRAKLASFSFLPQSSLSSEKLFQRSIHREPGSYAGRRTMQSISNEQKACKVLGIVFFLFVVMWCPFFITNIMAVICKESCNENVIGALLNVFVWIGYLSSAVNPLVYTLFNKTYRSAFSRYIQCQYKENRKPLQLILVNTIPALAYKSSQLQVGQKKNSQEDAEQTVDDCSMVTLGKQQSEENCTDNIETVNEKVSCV
As to the kind of experiment: Measurement of serotonin 2 receptor antagonistic activity (serotonin contraction of excised rat tail artery spiral specimen). Format: cell-based. To be noted: against the contraction of 3 x 10⁻⁶ serotonin, drug administered 10 minutes before cumulative serotonin, read-out: IC₅₀ value. How it is done:
[Measurement of serotonin 2 receptor antagonistic activity]
Male rats of Wistar-KY line (body weight, approximately 220 to 370 g) were sacrificed and subjected to bloodletting to excise abdominal side tail arteries. A piece of wire was inserted into each of the thus excised blood vessels to prepare a spiral specimen (approximately 1.5 x 30 mm). The specimen was suspended in a Magnus tube (10 ml; Krebs-Hensereit solution) with a load of 500 mg at 37°C, and a gas mixture of 95% O₂ + CO₂ was passed through the tube. Tensile force was measured using a tension transducer (TB-621T, manufactured by Nippon Koden) and writing the data on an ink recorder (FBA-253A, manufactured by Toa Denpa) via a pressure amplifier (AP-621G, manufactured by Nippon Koden). After 1 hour of equilibration time, the specimen was contracted with 10⁻⁵ M of serotonin, washed and then subjected to cumulative administration of 10⁻⁸ to 3 x 10⁻⁵ M serotonin at intervals of 45 minutes to record the resulting contraction twice. The second recording was used as a control. Thereafter, each of the drugs to be tested was administered 10 minutes before the commencement of the cumulative administration to evaluate its serotonin antagonism. […] In the table, each result was indicated by "+" when the IC₅₀ value was 1.0 x 10⁻⁷ M or more, "++" when the value was 9.9 x 10⁻⁸ to 1.0 x 10⁻⁸ M and "+++" when the value was 9.9 x 10⁻⁹ M or smaller.

Assay [1] has as its system 5-HTP-induced head-twitch. Put plainly: Measurement of activity to inhibit 5-HTP-induced head-twitch. The format is in vivo, mouse. To be noted: read-out: IC₅₀ value. How it is done: [Measurement of activity to inhibit 5-HTP-induced head-twitch]
To each ICR male mouse of 4 weeks of age were administered 300 mg/kg of 5-HTP by intraperitoneal injection (i.p.) and then 0.03 to 3 mg/kg of each test drug 25 minutes thereafter by intravenous injection, thereby counting the number of head-twitch induced after 5 minutes of the administration (for 20 minutes) and calculating the IC₅₀ value. In the table, each result was indicated by "+" when the IC₅₀ value was […] or more, "++" when the value was 100 to 999 mg/kg and "+++" when the value was 99 mg/kg or less.

Structures are written as SMILES. Counter-ions that a name gives are not always drawn. Like-named read-outs stand apart in the source and are kept apart here.

On to `COc1ccc(S(=O)(=O)N(CCN2CCC(C(=O)c3ccc(F)cc3)CC2)c2ccccc2OC)cc1` [C, N-{2-[4-(4-Fluorobenzoyl)piperidino]ethyl}-4-methoxy-N-(2-methoxyphenyl)benzenesulfonamide oxalate], for which, in the assay with platelet aggregation, the IC50 is not below 1 µM.

`COc1cccc(CC(CCN2CCC(C(=O)c3ccc(F)cc3)CC2)c2ccccc2OC)c1` (stereo not drawn) [A, 4-(4-Fluorobenzoyl)-1-[3-(2-methoxyphenyl)-4-(3-methoxyphenyl)butyl]piperidine hydrochloride]: the IC50 at serotonin 2 receptor lay in the range of 0.01 to 0.099 µM. Turning to `COc1ccc(S(=O)(=O)NC(=N)CCN2CCC(C(=O)c3ccc(F)cc3)CC2)cc1` [Compound I, 3-[4-(4-Fluorobenzoyl)piperidino]-N-(4-methoxybenzenesulfonyl)propionamidine oxalate], the IC50 on serotonin 2 receptor fell in the range of 0.01 to 0.099 µM. For `CC(=O)Nc1ccc(C(=O)N(CCN2CCC(C(=O)c3ccc(F)cc3)CC2)c2ccccc2)cc1` [K, 4-Acetylamino-N-{2-[4-(4-fluorobenzoyl)piperidino]ethyl}-N-(phenyl)benzamide fumarate], the IC50 on serotonin 2 receptor is 0.01 to 0.099 µM. Still for that read-out and setting: the same measure for `COc1ccccc1N(CCN1CCC(C(=O)c2ccc(F)cc2)CC1)S(=O)(=O)c1ccc(CO)cc1` [F, N-{2-[4-(4-Fluorobenzoyl)piperidino]ethyl}-4-hydroxymethyl-N-(2-methoxyphenyl)benzenesulfonamide oxalate]: less than 0.0099 µM. Consider `COc1ccccc1N(CCN1CCC(C(=O)c2ccc(F)cc2)CC1)C(=O)c1ccc(CO)cc1.O=C(O)C(=O)O` [G, N-{2-[4-(4-Fluorobenzoyl)piperidino]ethyl}-4-hydroxymethyl-N-(2-methoxyphenyl)benzamide oxalate], for which the ED50 in assay [1] (Mus musculus, iv) was less than 99 mg/kg. Moreover, in the assay with platelet aggregation, the IC50 was in the range of 0.1 to 0.99 µM. With `COc1ccccc1N(CCN1CCC(C(=O)c2ccc(F)cc2)CC1)C(=O)c1ccc(CN)cc1.O=C(O)C(=O)O` [H, 4-Aminomethyl-N-{2-[4-(4-fluorobenzoyl)piperidino]ethyl}-N-(2-methoxyphenyl)benzamide oxalate], the ED50 in assay [1] (Mus musculus, iv) was more than 1000 mg/kg. For the same compound, the IC50 at serotonin 2 receptor is 0.01 to 0.099 µM; in the assay on platelet aggregation it was 0.1 to 0.99 µM. In the case of `COc1cccc(C(=O)N(CCN2CCC(C(=O)c3ccc(F)cc3)CC2)c2ccccc2OC)c1` [B, N-{2-[4-(4-Fluorobenzoyl)piperidino]ethyl}-3-methoxy-N-(2-methoxyphenyl)benzamide oxalate], the IC50 at serotonin 2 receptor was in the range of 0.01 to 0.099 µM. On to `COc1cccc(N(CCN2CCC(C(=O)c3ccc(F)cc3)CC2)C(=O)c2ccc(NC(C)=O)cc2)c1.O=C(O)/C=C/C(=O)O` [J, 4-Acetylamino-N-{2-[4-(4-fluorobenzoyl)piperidino]ethyl}-N-(3-methoxyphenyl)benzamide fumarate], for which the ED50 in assay [1] (Mus musculus, iv) is 100 to 999 mg/kg. Moreover, the figures for the IC50 on serotonin 2 receptor and in the assay with platelet aggregation were 0.01 to 0.099 µM and less than 0.099 µM, respectively.

Turning to `O=C(c1ccc(F)cc1)C1CCN(CCn2c(=O)[nH]c3ccccc3c2=O)CC1` [ketanserin, reference compound], in assay [1] (ICR male mouse, 300 mg/kg 5-HTP i.p., test drug 0.03 to 3 mg/kg intravenous 25 minutes thereafter, head-twitch counted for 20 minutes), the ED50 is less than 99 mg/kg. The IC50 in the assay on platelet aggregation lay in the range of 0.1 to 0.99 µM. As for `COc1ccccc1N(CCN1CCC(C(=O)c2ccc(F)cc2)CC1)S(=O)(=O)c1ccc(F)cc1` [D, 4-Fluoro-N-{2-[4-(4-fluorobenzoyl)piperidino]ethyl}-N-(2-methoxyphenyl)benzenesulfonamide oxalate], the IC50 on serotonin 2 receptor was in the range of 0.01 to 0.099 µM. As to `COc1ccc(S(=O)(=O)N(CCN2CCC(C(=O)c3ccc(F)cc3)CC2)C2CCCCC2)cc1` [E, N-Cyclohexyl-N-{2-[4-(4-fluorobenzoyl)piperidino]ethyl}-4-methoxybenzenesulfonamide oxalate], the IC50 at serotonin 2 receptor lay in the range of 0.01 to 0.099 µM.
